Results reported in patent US5169838A, “Benzopyranone-β-D-thioxylosides and their use in therapy” (Fournier Industrie et Sante, priority 1989, dated 1992).

Experiment: venous thrombosis (venous stasis under hypercoagulation with activated factor X, Wessler technique)
Type: in vivo, male Wistar rats
Conditions: po, administered orally, rat, thrombosis induced 4 hours after treatment, thrombus weighed
Protocol: The study is performed on unfasted male Wistar rats weighing 250 to 280 g, divided up into groups of 10 animals each. The test products are administered orally as a suspension in PEG 400. A thrombosis is induced 4 hours after this treatment and the thrombus formed is removed and weighed.

SMILES | inhibition in vivo at 3 mg/kg
CCc1cc(=O)c2ccc(O[C@@H]3SC[C@@H](OC(C)=O)[C@H](OC(C)=O)[C@H]3OC(C)=O)cc2o1 [Example 21a, 2-ethyl-4-oxo-4H-1-benzopyran-7-yl 2,3,4-tri-O-acetyl-5-thio-β-D-xylopyranoside] | 42%
CCCc1cc(=O)oc2cc(O[C@@H]3SC[C@@H](OC(C)=O)[C@H](OC(C)=O)[C@H]3OC(C)=O)ccc12 [Example 5a, 2-oxo-4-propyl-2H-1-benzopyran-7-yl 2,3,4-tri-O-acetyl-5-thio-β-D-xylopyranoside] | 46%
Cc1cc(=O)c2ccc(O[C@@H]3SC[C@@H](O)[C@H](O)[C@H]3O)cc2o1 [Example 20, 2-methyl-4-oxo-4H-1-benzopyran-7-yl 5-thio-β-D-xylopyranoside] | 53%
CC(=O)O[C@@H]1[C@@H](OC(C)=O)[C@H](OC(C)=O)CS[C@H]1Oc1ccc2oc(=O)cc(C)c2c1 [Example 2a, 4-methyl-2-oxo-2H-1-benzopyran-6-yl 2,3,4-tri-O-acetyl-5-thio-β-D-xylopyranoside] | 53%
CCc1cc(=O)oc2cc(O[C@@H]3SC[C@@H](OC(C)=O)[C@H](OC(C)=O)[C@H]3OC(C)=O)ccc12 [Example 1a, 4-ethyl-2-oxo-2H-1-benzopyran-7-yl 2,3,4-tri-O-acetyl-5-thio-β-D-xylopyranoside] | 65%
O=c1cc(-c2ccccc2)oc2cc(O[C@@H]3SC[C@@H](O)[C@H](O)[C@H]3O)ccc12 [Example 25, 4-oxo-2-phenyl-4H-1-benzopyran-7-yl 5-thio-β-D-xylopyranoside] | 28%
Cc1cc(=O)oc2c(O[C@@H]3SC[C@@H](O)[C@H](O)[C@H]3O)cccc12 [Example 4, 4-methyl-2-oxo-2H-1-benzopyran-8-yl 5-thio-β-D-xylopyranoside] | 52%
Cc1c(Cl)c(=O)oc2cc(O[C@@H]3SC[C@@H](O)[C@H](O)[C@H]3O)ccc12 [Example 17, 3-chloro-4-methyl-2-oxo-2H-1-benzopyran-7-yl 5-thio-β-D-xylopyranoside] | 64%
CCCc1cc(=O)oc2cc(S[C@@H]3SC[C@@H](O)[C@H](O)[C@H]3O)ccc12 [Example 14, 2-oxo-4-propyl-2H-1-benzopyran-7-yl 1,5-dithio-β-D-xylopyranoside] | 43%
